{
  "source": "patent US20250282771A1",
  "about": "“TETRAHYDROISOQUINOLINE HETEROBIFUNCTIONAL BCL-XL DEGRADERS” (Treeline Biosciences, Inc., priority 2022, published 2025)",
  "data": [
    {"target": "T1, N-terminal HiBiT tagged BCL-XL (Homo sapiens, UniProt Q07817)", "T1 construct": "expressed in transfected cells; host or cells: HT-1080 (ATCC CCL-121) cells stably transduced with lentivirus pLV-UBC-N-HiBiT-BCL-XL-PGK-puro", "T1 sequence (Q07817 whole entry, the tested form may be a part)": "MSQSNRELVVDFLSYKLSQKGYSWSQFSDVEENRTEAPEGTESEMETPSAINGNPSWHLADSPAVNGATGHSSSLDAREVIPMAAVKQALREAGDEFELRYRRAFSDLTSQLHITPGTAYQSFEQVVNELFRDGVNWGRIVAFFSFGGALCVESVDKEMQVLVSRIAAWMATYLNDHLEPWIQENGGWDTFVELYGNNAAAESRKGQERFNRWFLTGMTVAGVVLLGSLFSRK", "test": "HiBiT based degradation assay", "type": "cell-based", "settings": "HT1080 cells expressing N-terminal HiBiT tagged BCL-XL; 6 h; BCL-XL level normalized with DMSO control", "excerpt": "(§1) Human BCL-XL protein coding open reading frame fused with N-terminal HiBiT coding sequence was synthesized from Integrated DNA Technologies (IDT). Next, N-HiBiT-BCL-XL sequence was cloned into pLV-UBC-PGK-Puro, a lentivirus plasmid purchased from Vectorbuilder, to generate pLV-UBC-N-HiBiT-BCL-XL-PGK-puro. Lentiviral particles were generated from Lenti-X™ 293T cells (Clontech) by co-transfection of pLV-UBC-N-HiBiT-BCL-XL-PGK-puro plasmids and lentiviral packaging plasmid mix (Cellecta). HT-1080 [HT1080](ATCC CCL-121) cells were infected with the lentivirus, and HT1080 cells stably integrated with the lentiviral vectors were established by incubation with […] puromycin (Thermofisher).\n(§2) HT1080 cells expressing N-terminal HiBiT tagged BCL-XL were dispensed into a 384-well plate pre-spotted with compounds at varying concentrations. Three thousand cells were seeded into each well in 40 μL of RPMI 1640 media. […] After incubation, luminescence was read on a PHERAstar FSX Plate Reader (BMG). BCL-XL degradation at each indicated concentration was normalized with the DMSO control. The BCL-XL degradation curves were plotted using a four-parameter logistic model. For compounds displaying hook effects, the curve fitting was performed using the bottom point of the hook curves (i.e., the point of Ymin) as the bottom plateau to calculate EC50.", "values": [
      {"compound": "Cc1c(O[C@@H](C)CCC2CCN(CC(=O)N3CCN(c4cc5c(cc4F)C(=O)N(C4CCC(=O)NC4=O)C5=O)CC3)CC2)cccc1-c1ccc(N2CCc3cccc(C(=O)Nc4nc5ccccc5s4)c3C2)nc1C(=O)O", "note": "(stereo partly drawn) [Compound 128a, 6-(8-(benzo[d]thiazol-2-ylcarbamoyl)-3,4-dihydroisoquinolin-2(1H)-yl)-3-(3-(((2S)-4-(1-(2-(4-(2-(2,6-dioxopiperidin-3-yl)-6-fluoro-1,3-dioxoisoindolin-5-yl)piperazin-1-yl)-2-oxoethyl)piperidin-4-yl)butan-2-yl)oxy)-2-methylphenyl)picolinic acid]", "Ymin (6 h)": "C (Ymin ≥ 70%)"}
    ]},
    {"target": "T1, N-terminal HiBiT tagged BCL-XL", "test": "HiBiT based degradation assay", "type": "cell-based", "settings": "HT1080 cells expressing N-terminal HiBiT tagged BCL-XL; 24 h; BCL-XL level normalized with DMSO control", "excerpt": "as §1, §2", "values": [
      {"compound": "Cc1c(OCCC[C@@H]2CCN(CC(=O)N3CCN(c4cc5c(cc4F)C(=O)N(C4CCC(=O)NC4=O)C5=O)CC3)CC2(F)F)cccc1-c1ccc(N2CCc3cccc(C(=O)Nc4nc5ccccc5s4)c3C2)nc1C(=O)O", "note": "(stereo partly drawn) [Compound 120a, 6-(8-(benzo[d]thiazol-2-ylcarbamoyl)-3,4-dihydroisoquinolin-2(1H)-yl)-3-(3-(3-((4R)-1-(2-(4-(2-(2,6-dioxopiperidin-3-yl)-6-fluoro-1,3-dioxoisoindolin-5-yl)piperazin-1-yl)-2-oxoethyl)-3,3-difluoropiperidin-4-yl)propoxy)-2-methylphenyl)picolinic acid]", "Ymin (24 h)": "B (50% ≤ Ymin < 70%)"},
      {"compound": "Cc1c(OCCC[C@H]2CCN(CC(=O)N3CCN(c4cc5c(cc4F)C(=O)N(C4CCC(=O)NC4=O)C5=O)CC3)CC2(F)F)cccc1-c1ccc(N2CCc3cccc(C(=O)Nc4nc5ccccc5s4)c3C2)nc1C(=O)O", "note": "(stereo partly shown) [Compound 120b]", "Ymin (24 h)": "C (Ymin ≥ 70%)"},
      {"compound": "Cc1cc(OCCCC2CCN(CCN3CCN(c4cc5c(cc4F)C(=O)N(C4CCC(=O)NC4=O)C5=O)CC3)CC2)ccc1-c1ccc(N2CCc3cccc(C(=O)Nc4nc5ccccc5s4)c3C2)nc1C(=O)O", "note": "(stereo not shown) [Compound 121]", "Ymin (24 h)": "A (Ymin < 50%)"},
      {"compound": "Cc1c(OCCC[C@H]2CCN(CC(=O)N3CCN(c4cc5c(cc4F)C(=O)N(C4CCC(=O)NC4=O)C5=O)CC3)C2)cccc1-c1ccc(N2CCc3cccc(C(=O)Nc4nc5ccccc5s4)c3C2)nc1C(=O)O", "note": "(stereo partly drawn) [Compound 122a, 6-(8-(benzo[d]thiazol-2-ylcarbamoyl)-3,4-dihydroisoquinolin-2(1H)-yl)-3-(3-(3-((3S)-1-(2-(4-(2-(2,6-dioxopiperidin-3-yl)-6-fluoro-1,3-dioxoisoindolin-5-yl)piperazin-1-yl)-2-oxoethyl)pyrrolidin-3-yl)propoxy)-2-methylphenyl)picolinic acid]", "Ymin (24 h)": "B (50% ≤ Ymin < 70%)"},
      {"compound": "Cc1c(OCCC[C@@H]2CCN(CC(=O)N3CCN(c4cc5c(cc4F)C(=O)N(C4CCC(=O)NC4=O)C5=O)CC3)C2)cccc1-c1ccc(N2CCc3cccc(C(=O)Nc4nc5ccccc5s4)c3C2)nc1C(=O)O", "note": "(stereo partly drawn) [Compound 122b, 6-[8-(1,3-benzothiazol-2-ylcarbamoyl)-3,4-dihydro-1H-isoquinolin-2-yl]-3-[3-[3-[(3R)-1-[2-[4-[2-(2,6-dioxo-3-piperidyl)-6-fluoro-1,3-dioxo-isoindolin-5-yl]piperazin-1-yl]-2-oxo-ethyl]pyrrolidin-3-yl]propoxy]-2-methyl-phenyl]pyridine-2-carboxylic acid]", "Ymin (24 h)": "B (50% ≤ Ymin < 70%)"},
      {"compound": "Cc1c(OCCCCN2CCC(CN3CCN(c4cc5c(cc4F)C(=O)N(C4CCC(=O)NC4=O)C5=O)CC3)CC2)cccc1-c1ccc(N2CCc3cccc(C(=O)Nc4nc5ccccc5s4)c3C2)nc1C(=O)O", "note": "(stereo not shown) [Compound 123, 6-[8-(1,3-benzothiazol-2-ylcarbamoyl)-3,4-dihydro-1H-isoquinolin-2-yl]-3-[3-[4-[4-[[4-[2-(2,6-dioxo-3-piperidyl)-6-fluoro-1,3-dioxo-isoindolin-5-yl]piperazin-1-yl]methyl]-1-piperidyl]butoxy]-2-methyl-phenyl]pyridine-2-carboxylic acid]", "Ymin (24 h)": "B (50% ≤ Ymin < 70%)"},
      {"compound": "Cc1c(OCCCC2CCN([C@@H](C)C(=O)N3CCN(c4cc5c(cc4F)C(=O)N(C4CCC(=O)NC4=O)C5=O)CC3)CC2)cccc1-c1ccc(N2CCc3cccc(C(=O)Nc4nc5ccccc5s4)c3C2)nc1C(=O)O", "note": "(stereo partly drawn) [Compound 124a, 6-(8-(benzo[d]thiazol-2-ylcarbamoyl)-3,4-dihydroisoquinolin-2(1H)-yl)-3-(3-(3-(1-((2S)-1-(4-(2-(2,6-dioxopiperidin-3-yl)-6-fluoro-1,3-dioxoisoindolin-5-yl)piperazin-1-yl)-1-oxopropan-2-yl)piperidin-4-yl)propoxy)-2-methylphenyl)picolinic acid]", "Ymin (24 h)": "B (50% ≤ Ymin < 70%)"},
      {"compound": "Cc1c(OCCCC2CCN([C@H](C)C(=O)N3CCN(c4cc5c(cc4F)C(=O)N(C4CCC(=O)NC4=O)C5=O)CC3)CC2)cccc1-c1ccc(N2CCc3cccc(C(=O)Nc4nc5ccccc5s4)c3C2)nc1C(=O)O", "note": "(stereo partly drawn) [Compound 124b, 6-(8-(benzo[d]thiazol-2-ylcarbamoyl)-3,4-dihydroisoquinolin-2(1H)-yl)-3-(3-(3-(1-((2R)-1-(4-(2-(2,6-dioxopiperidin-3-yl)-6-fluoro-1,3-dioxoisoindolin-5-yl)piperazin-1-yl)-1-oxopropan-2-yl)piperidin-4-yl)propoxy)-2-methylphenyl)picolinic acid]", "Ymin (24 h)": "B (50% ≤ Ymin < 70%)"},
      {"compound": "Cc1c(OCCC(F)(F)C2CCN(CC(=O)N3CCN(c4cc5c(cc4F)C(=O)N(C4CCC(=O)NC4=O)C5=O)CC3)CC2)cccc1-c1ccc(N2CCc3cccc(C(=O)Nc4nc5ccccc5s4)c3C2)nc1C(=O)O", "note": "(stereo not shown) [Compound 126, 6-(8-(benzo[d]thiazol-2-ylcarbamoyl)-3,4-dihydroisoquinolin-2(1H)-yl)-3-(3-(3-(1-(2-(4-(2-(2,6-dioxopiperidin-3-yl)-6-fluoro-1,3-dioxoisoindolin-5-yl)piperazin-1-yl)-2-oxoethyl)piperidin-4-yl)-3,3-difluoropropoxy)-2-methylphenyl)picolinic acid]", "Ymin (24 h)": "B (50% ≤ Ymin < 70%)"},
      {"compound": "Cc1c(OCC(F)(F)CC2CCN(CC(=O)N3CCN(c4cc5c(cc4F)C(=O)N(C4CCC(=O)NC4=O)C5=O)CC3)CC2)cccc1-c1ccc(N2CCc3cccc(C(=O)Nc4nc5ccccc5s4)c3C2)nc1C(=O)O", "note": "(stereo not shown) [Compound 127, 6-(8-(benzo[d]thiazol-2-ylcarbamoyl)-3,4-dihydroisoquinolin-2(1H)-yl)-3-(3-(3-(1-(2-(4-(2-(2,6-dioxopiperidin-3-yl)-6-fluoro-1,3-dioxoisoindolin-5-yl)piperazin-1-yl)-2-oxoethyl)piperidin-4-yl)-2,2-difluoropropoxy)-2-methylphenyl)picolinic acid]", "Ymin (24 h)": "B (50% ≤ Ymin < 70%)"},
      {"compound": "Cc1c(O[C@@H](C)CCC2CCN(CC(=O)N3CCN(c4cc5c(cc4F)C(=O)N(C4CCC(=O)NC4=O)C5=O)CC3)CC2)cccc1-c1ccc(N2CCc3cccc(C(=O)Nc4nc5ccccc5s4)c3C2)nc1C(=O)O", "note": "(stereo partly drawn) [Compound 128a, 6-(8-(benzo[d]thiazol-2-ylcarbamoyl)-3,4-dihydroisoquinolin-2(1H)-yl)-3-(3-(((2S)-4-(1-(2-(4-(2-(2,6-dioxopiperidin-3-yl)-6-fluoro-1,3-dioxoisoindolin-5-yl)piperazin-1-yl)-2-oxoethyl)piperidin-4-yl)butan-2-yl)oxy)-2-methylphenyl)picolinic acid]", "Ymin (24 h)": "B (50% ≤ Ymin < 70%)"},
      {"compound": "Cc1c(O[C@H](C)CCC2CCN(CC(=O)N3CCN(c4cc5c(cc4F)C(=O)N(C4CCC(=O)NC4=O)C5=O)CC3)CC2)cccc1-c1ccc(N2CCc3cccc(C(=O)Nc4nc5ccccc5s4)c3C2)nc1C(=O)O", "note": "(stereo partly drawn) [Compound 128b, 6-[8-(1,3-benzothiazol-2-ylcarbamoyl)-3,4-dihydro-1H-isoquinolin-2-yl]-3-[3-[(1R)-3-[1-[2-[4-[2-(2,6-dioxo-3-piperidyl)-6-fluoro-1,3-dioxo-isoindolin-5-yl]piperazin-1-yl]-2-oxo-ethyl]-4-piperidyl]-1-methyl-propoxy]-2-methyl-phenyl]pyridine-2-carboxylic acid]", "Ymin (24 h)": "B (50% ≤ Ymin < 70%)"},
      {"compound": "Cc1c(O[C@H]2CC[C@H](CCCCN3CCN(c4cc5c(cc4F)C(=O)N(C4CCC(=O)NC4=O)C5=O)CC3)CC2)cccc1-c1ccc(N2CCc3cccc(C(=O)Nc4nc5ccccc5s4)c3C2)nc1C(=O)O", "note": "(stereo partly shown) [Compound 129a, 6-(8-(benzo[d]thiazol-2-ylcarbamoyl)-3,4-dihydroisoquinolin-2(1H)-yl)-3-(3-(((1s,4r)-4-(4-(4-(2-(2,6-dioxopiperidin-3-yl)-6-fluoro-1,3-dioxoisoindolin-5-yl)piperazin-1-yl)butyl)cyclohexyl)oxy)-2-methylphenyl)picolinic acid]", "Ymin (24 h)": "B (50% ≤ Ymin < 70%)"},
      {"compound": "Cc1c(OCC[C@H](C)C2CCN(CC(=O)N3CCN(c4cc5c(cc4F)C(=O)N(C4CCC(=O)NC4=O)C5=O)CC3)CC2)cccc1-c1ccc(N2CCc3cccc(C(=O)Nc4nc5ccccc5s4)c3C2)nc1C(=O)O", "note": "(stereo partly drawn) [Compound 130a, 6-[8-(1,3-benzothiazol-2-ylcarbamoyl)-3,4-dihydro-1H-isoquinolin-2-yl-3-[3-[(3S)-3-1-[2-[4-[2-(2,6-dioxo-3-piperidyl)-6-fluoro-1,3-dioxo-isoindolin-5-yl]piperazin-1-yl]-2-oxo-ethyl]-4-piperidyl]butoxy]-2-methyl-phenyl]pyridine-2-carboxylic acid]", "Ymin (24 h)": "B (50% ≤ Ymin < 70%)"},
      {"compound": "Cc1c(OCC[C@@H](C)C2CCN(CC(=O)N3CCN(c4cc5c(cc4F)C(=O)N(C4CCC(=O)NC4=O)C5=O)CC3)CC2)cccc1-c1ccc(N2CCc3cccc(C(=O)Nc4nc5ccccc5s4)c3C2)nc1C(=O)O", "note": "(stereo partly shown) [Compound 130b]", "Ymin (24 h)": "C (Ymin ≥ 70%)"}
    ]}
  ]
}
